Activity calls are given as the source filed them. The rule behind the calls is not given here. Where only a bound is given, the exact number is not on record here.

Usually IC50 stands for the concentration that gives 50% inhibition. Low values mean greater potency in that assay, high ones weaker potency in that assay.

Experiment [1] concerns PANC-1. The experiment is described as follows: Cytotoxicity against human PANC1 after 24 hrs by fluorometric microculture cytotoxicity assay. The note with it: PANC-1, 24 h. It is filed as functional, cell-based.
In experiment [2] the test system is DU-145. The experiment is described as follows: Cytotoxicity against human DU145 cells after 24 hrs by fluorometric microculture cytotoxicity assay. Format: functional, cell-based. The note with it: DU-145, 24 h.
A short description of experiment [3]: Cytotoxicity against mouse C3H10T1/2 cells after 24 hrs by fluorometric microculture cytotoxicity assay. Format: cell-based. The following applies: C3H 10T1/2, 24 h.
Experiment [4] relates to PANC-1. The experiment is described as follows: Cytotoxicity against human PANC1 at 100 uM after 24 hrs by fluorometric microculture cytotoxicity assay. It is filed as functional, cell-based.
In experiment [5] the test system is DU-145. The experiment is described as follows: Cytotoxicity against human DU145 cells at 100 uM after 24 hrs by fluorometric microculture cytotoxicity assay. It is filed as functional, cell-based.
Experiment [6] concerns the target T1, Zinc finger protein GLI1 (Homo sapiens) (UniProt P08151).
T1 sequence (whole entry): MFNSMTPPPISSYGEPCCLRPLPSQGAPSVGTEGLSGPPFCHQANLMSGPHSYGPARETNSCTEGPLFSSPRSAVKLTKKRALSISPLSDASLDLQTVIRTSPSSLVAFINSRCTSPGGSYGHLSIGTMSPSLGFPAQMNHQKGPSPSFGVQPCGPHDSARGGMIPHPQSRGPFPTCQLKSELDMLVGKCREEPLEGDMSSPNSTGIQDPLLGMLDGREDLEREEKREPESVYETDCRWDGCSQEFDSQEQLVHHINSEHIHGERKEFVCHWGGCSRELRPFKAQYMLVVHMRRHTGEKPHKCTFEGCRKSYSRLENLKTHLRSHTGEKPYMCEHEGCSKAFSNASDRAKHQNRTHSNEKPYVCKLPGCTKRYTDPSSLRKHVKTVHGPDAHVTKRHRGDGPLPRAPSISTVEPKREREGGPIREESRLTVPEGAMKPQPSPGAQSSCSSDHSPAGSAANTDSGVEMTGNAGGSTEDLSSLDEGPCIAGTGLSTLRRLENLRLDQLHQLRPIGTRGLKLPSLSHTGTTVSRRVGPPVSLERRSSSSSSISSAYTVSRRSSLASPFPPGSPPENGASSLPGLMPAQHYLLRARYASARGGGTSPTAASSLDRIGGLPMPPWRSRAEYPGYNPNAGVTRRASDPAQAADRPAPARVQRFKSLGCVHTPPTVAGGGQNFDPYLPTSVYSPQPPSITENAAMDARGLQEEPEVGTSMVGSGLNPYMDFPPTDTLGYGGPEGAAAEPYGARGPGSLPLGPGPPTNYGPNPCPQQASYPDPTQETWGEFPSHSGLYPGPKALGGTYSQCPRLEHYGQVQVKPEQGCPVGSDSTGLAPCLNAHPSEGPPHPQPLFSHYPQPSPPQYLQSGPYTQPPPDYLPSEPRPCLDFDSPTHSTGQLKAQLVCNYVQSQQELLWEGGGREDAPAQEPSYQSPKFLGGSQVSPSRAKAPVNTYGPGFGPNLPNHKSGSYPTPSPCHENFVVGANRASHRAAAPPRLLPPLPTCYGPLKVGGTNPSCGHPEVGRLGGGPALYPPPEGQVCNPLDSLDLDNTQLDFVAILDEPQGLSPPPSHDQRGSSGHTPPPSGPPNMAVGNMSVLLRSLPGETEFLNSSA
The experiment is described as follows: Inhibition of GLI1-mediated transcriptional activity in human HaCaT cells by luciferase based reporter gene assay. It is filed as cell-based.

Experiment [7] has as its target T1, Zinc finger protein GLI1 (Homo sapiens). The experiment is described as follows: Effect on Hh/GLI-mediated transcription in human HaCaT cells assessed as reduction of PTCH protein expression by Western blot. Format: cell-based. For orientation: In western blotting, separated proteins are transferred to a membrane and probed.
Experiment [8] has the same target. The experiment is described as follows: Effect on Hh/GLI-mediated transcription in human HaCaT cells assessed as reduction of BCL2 protein expression by Western blot. Format: cell-based.
The target is the same in experiment [9]. The experiment is described as follows: Effect on Hh/GLI-mediated transcription in human PANC1 assessed as decrease in […] protein expression by Western blot. It is filed as cell-based. The following applies: PANC-1.
For experiment [10] the target is unchanged. The experiment is described as follows: Effect on Hh/GLI-mediated transcription in human PANC1 assessed as decrease in BCL2 protein expression by Western blot. It is filed as cell-based. The note with it: PANC-1.
Experiment [11] has the same target. The experiment is described as follows: Inhibition of GLI-mediated […] mRNA production in human PANC1 cells by RT-PCR analysis. The following applies: PANC-1. Format: cell-based.
In experiment [12] the test system is HaCaT. The experiment is described as follows: Decrease in GLI1 protein expression in human HaCaT cells by Western blot. It is filed as functional, cell-based.

On to `C=C(C)[C@@H]1CC[C@]2(C(=O)O)CC[C@]3(C)[C@H](CC[C@@H]4[C@@]5(C)[C@@H](C(=O)O)[C@H](O)C(C)(C)[C@@H]5CC[C@]43C)[C@@H]12` [CEANOTHIC ACID], for which the IC50 in experiment [1] is 195 µM; in experiment [2], over 200 µM; in experiment [3], over 200 µM. In addition, the outcome in [4] and in experiment [5] was inactive.

Take `C=C(C)[C@@H]1CC[C@]2(C(=O)O)CC[C@]3(C)[C@H](CC[C@@H]4[C@@]5(C)C[C@@H](O)[C@H](O)C(C)(C)[C@@H]5CC[C@]43C)[C@@H]12` [ALPHITOLIC ACID]: the Activity result in experiment [6] was “Dose-dependent effect”. Further, the IC50 is 41 µM in [1], 70 µM in [2] and 145 µM in [3].

In the case of `C=C(C)[C@@H]1CC[C@]2(C(=O)O)CC[C@]3(C)[C@H](CC[C@@H]4[C@@]5(C)[C@H](C=O)[C@@H](O)C(C)(C)[C@@H]5CC[C@]43C)[C@@H]12` [COLUBRINIC ACID], the Activity entry in [6], in experiment [7], in [8] and in experiment [11] was “Dose-dependent effect” each time. For the same molecule, the IC50 amounted to 43 µM in experiment [1], 78 µM in experiment [2] and 167 µM in [3]. In addition, the outcome in experiment [9] and in experiment [10] was Active.

With `C=C(C)[C@@H]1CC[C@]2(C(=O)O)CC[C@]3(C)[C@H](CC[C@@H]4[C@@]5(C)CC[C@H](O)C(C)(C)[C@@H]5CC[C@]43C)[C@@H]12` [BETULINIC ACID], the Activity result in experiment [6] was “Dose-dependent effect”. The IC50 amounted to 44 µM in experiment [1], 37 µM in experiment [2] and 82 µM in [3]. Further, the result in experiment [7], in experiment [8], in [12], in experiment [9] and in experiment [10] was Active.

In the case of `C=C(C)[C@@H]1CC[C@]2(C(=O)O)CC[C@]3(C)[C@H](CC[C@@H]4[C@@]5(C)[C@H](CO)[C@@H](O)C(C)(C)[C@@H]5CC[C@]43C)[C@@H]12` [CEANOTHANOLIC ACID], the IC50 in experiment [1], in experiment [2] and in experiment [3] was over 200 µM in each case. The outcome in experiment [4] and in experiment [5] was inactive.

For the origin of these results see ChEMBL document CHEMBL1142522, “Hedgehog/GLI-mediated transcriptional inhibitors from Zizyphus cambodiana” (Bioorg Med Chem, 2008).
